In paper PMC12498190, “A Photocaged N‐Phosphonopiperidinone as a Selective Photo‐Cleavable DPP8/9 Inhibitor” (Chembiochem, 2025):

Target: T1, prolyl endopeptidase (PREP) (Homo sapiens, UniProt P48147)
T1 construct: endogenous in cells; host or cells: HEK293 (Cytion, Germany, 300192)
T1 sequence (P48147 1-710): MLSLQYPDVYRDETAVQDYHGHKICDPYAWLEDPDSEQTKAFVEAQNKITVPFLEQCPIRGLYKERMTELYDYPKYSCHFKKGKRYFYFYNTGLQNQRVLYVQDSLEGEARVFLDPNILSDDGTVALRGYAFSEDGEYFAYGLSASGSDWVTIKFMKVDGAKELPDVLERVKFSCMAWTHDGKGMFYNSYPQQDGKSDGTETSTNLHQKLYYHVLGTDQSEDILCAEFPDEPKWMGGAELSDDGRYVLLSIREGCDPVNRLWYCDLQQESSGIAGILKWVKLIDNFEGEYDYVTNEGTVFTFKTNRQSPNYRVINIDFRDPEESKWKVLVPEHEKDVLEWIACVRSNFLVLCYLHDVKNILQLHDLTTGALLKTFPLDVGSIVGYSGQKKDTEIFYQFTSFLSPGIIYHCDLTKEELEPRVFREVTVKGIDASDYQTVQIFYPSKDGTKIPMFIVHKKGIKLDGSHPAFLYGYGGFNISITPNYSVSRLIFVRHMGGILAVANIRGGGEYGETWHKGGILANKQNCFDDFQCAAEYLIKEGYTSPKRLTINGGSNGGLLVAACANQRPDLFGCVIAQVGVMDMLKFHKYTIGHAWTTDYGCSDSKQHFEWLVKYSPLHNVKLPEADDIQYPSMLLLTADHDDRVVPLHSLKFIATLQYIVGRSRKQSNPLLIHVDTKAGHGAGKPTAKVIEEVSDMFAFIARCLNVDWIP
Experiment: In vitro gel-based competitive ABPP in HEK293 cell lysates, 70 kDa band
Details: HEK293 lysate; 10 µM competitor, 30 min; 10 µM 2; green light 5 min
Description: Therefore, HEK293 cell lysates were pre‐incubated with 10 µM 5 or DMSO vehicle control for 30 min, followed by a labeling reaction with 2 µM of the serine hydrolase‐specific ABP fluorophosphonate‐alkyne (≡FP) or 10 µM 2 (Figure 2B). […] Of note, this band has been previously assigned as DPP9 (DPP8 would migrate in the same range, but is only expressed at low levels in the used cell line and therefore cannot be visualized by this approach).^[ [36] ^, [37] ^] […] Again, this labeling was observed regardless of prior irradiation. Subsequently, the competitive labeling experiment was conducted by pre‐incubation with compound 5, with or without subsequent irradiation.
Figure 2 Competitive ABPP with photo‐cleavable inhibitor 5 in HEK293 cells. […] HEK293 cells were irradiated with a green LED lamp in the presence of 0.5% DMSO for 5 min (‘light’), and cell viability was measured after 24 h. […] For both compounds, cell viability was measured under ‘dark’ (not irradiated) and ‘light’ (irradiated for 5 min with a green LED lamp after the addition of the inhibitor) conditions. […]
For in vitro ABPP, cell lysates were generated from HEK293 cells grown on a 10 cm tissue dish. […] The cell lysates were cleared via centrifugation (30 min, 20,817 × g, 4 °C), and protein concentration was determined with a modified Bradford assay using Roti‐Nanoquant (Carl Roth, Germany). […]

## CCCCCc1ccc(SCCP(=O)(OCC)N2CCC[C@H](NC(=O)OCC3=C4C(C)=CC(C)=[N+]4[B-](C)(C)n4c(C)cc(C)c43)C2=O)cc1 (stereo partly shown) [Compound 5]
  Competition of PREP band labeling by ABP 2 (in words): slight reduction
